Activity, fold change (FC) and IC50 data for eleven molecules are collected here from ChEMBL document CHEMBL5316360, “Fatty Acid Conjugated Chalcones as Tubulin Polymerization Inhibitors: Design, Synthesis, QSAR, and Apoptotic and Antiproliferative Activity” (J Nat Prod, 2023).

One data set concerns Erythrocyte. Briefly: Hemolytic activity in Albino rat RBC at 150 uM incubated for 15 mins by spectrophotometric analysis. The note with it: 0.25 h. The class given is toxicity, cell-based.
A further data set has as its target Tubulin (Homo sapiens) (UniProt P68371+Q9H4B7+P0DPH7+P68366+Q13509+Q71U36+P04350+Q3ZCM7+P07437+P68363+Q9BQE3+Q6PEY2+Q13885+Q9BVA1+Q9BUF5). Briefly: Inhibition of tubulin polymerization in human MCF7 cells assessed as fold increase in tubulin inhibition incubated for 18 to 24 hrs by ELISA method. The class given is cell-based. The note with it: time 18-24 hrs. (ELISA stands for enzyme-linked immunosorbent assay.)

In another data set the test system is MCF7. As to the kind of experiment: Antiproliferative activity against human MCF7 cells assessed as inhibition of cell growth measured after 24 hrs by MTT assay. The class given is functional, cell-based. Conditions: MCF7, 24 h. (Tetrazolium dyes change colour on reduction, which living cells bring about.)
For a further data set, the system named is WI-38. As to the kind of experiment: Cytotoxicity against human WI-38 cells assessed as reduction in cell viability at 10 to 100 uM measured after 24 hrs by MTT assay. The class given is toxicity, cell-based. The note with it: wi-38, 24 h, dose 10-100 µM.
The test system of another data set is A549. As to the kind of experiment: Antiproliferative activity against human A549 cells assessed as inhibition of cell growth measured after 24 hrs by MTT assay. Conditions: A549, 24 h. The class given is functional, cell-based.
Another data set has as its target Tubulin. Briefly: Inhibition of tubulin polymerization in human MCF7 cells incubated for 18 to 24 hrs by ELISA method. The class given is cell-based.

The IC50 is the concentration that inhibits the measured activity by half.

Regarding `CCCCCCCCCCCCCCCC(=O)Nc1ccc(C(=O)/C=C/c2ccc(OC)cc2)cc1`, in the data set on Erythrocyte, the Activity entry was “Non-Toxic”. For `CCCCCCCCCC(=O)Nc1ccc(C(=O)/C=C/c2ccc(OC)cc2)cc1`, on Tubulin (Homo sapiens), the fold change (FC) was determined as 2.

Regarding `CCCCCCCCCC(=O)Nc1ccc(C(=O)/C=C/c2ccc(C)cc2)cc1`, the IC50 stood at 2600 nM in the data set with MCF7 and 2100 nM in the data set with A549. Besides, the Activity result in the data set with WI-38 is reported as “Non-Toxic”. At Tubulin (Homo sapiens), the fold change (FC) stood at 2. As for `CCCCCCCC(=O)Nc1ccc(C(=O)/C=C/c2ccccc2)cc1`, the IC50 in the data set with MCF7 came to 2100 nM; at Tubulin, 1500 nM. The Activity entry in the data set with WI-38 is “Non-Toxic”. Take `CCCCCCCCCCCCCC(=O)Nc1ccc(C(=O)/C=C/c2ccccc2)cc1`: in the data set with WI-38, the Activity entry was “Non-Toxic”.

For the molecule `CCCCCCCCCCCCCCCC(=O)Nc1ccc(C(=O)/C=C/c2ccccc2)cc1`, the Activity result with WI-38 is “Non-Toxic”. `CCCCCCCCCC(=O)Nc1ccc(C(=O)/C=C/c2ccc(Cl)cc2)cc1`: the IC50 in the data set on MCF7 was determined as 2900 nM; in the data set with A549, 3200 nM. For the same molecule, the Activity result with WI-38 was “Non-Toxic”. In addition, the fold change (FC) at Tubulin (Homo sapiens) was 2. On to `CCCCCCCCCCCCCCCC(=O)Nc1ccc(C(=O)/C=C/c2ccc(C)cc2)cc1`, for which, in the data set on Erythrocyte, the Activity result is “Non-Toxic”. With `CCCCCCCCCCCCCCCCCC(=O)Nc1ccc(C(=O)/C=C/c2ccccc2)cc1`, the Activity entry in the data set with WI-38 was “Non-Toxic”. Besides, the IC50 against Tubulin is 800 nM.

Turning to `CCCCCCCCCC(=O)Nc1ccc(C(=O)/C=C/c2ccccc2)cc1`, the Activity entry with WI-38 is given as “Non-Toxic”. Also, the IC50 in the data set on A549 amounted to 650 nM. Take `CCCCCCCCCCCCCCCC(=O)Nc1ccc(C(=O)/C=C/c2ccc(Cl)cc2)cc1`: the Activity entry with Erythrocyte was “Non-Toxic”.
